The source of these data is patent US8642623B2, “Vanilloid receptor ligand compounds, pharmaceutical compositions containing them, a method of producing them and the use thereof to treat pain and various other conditions” (Gruenenthal GmbH, priority 2007, dated 2014).

What all share (format): cell-based
In assay [1] the target is vanilloid receptor 1 (VR1/TRPV1 receptor) (Homo sapiens, UniProt Q8NER1). Description: Human VR1/TRPV1 receptor inhibition after pH stimulus. The conditions noted are these: for inhibition at 5 µM: compound 5 μM; for inhibition at 10 µM: compound 10 μM.
Sequence of vanilloid receptor 1 (VR1/TRPV1 receptor) (Q8NER1 whole entry): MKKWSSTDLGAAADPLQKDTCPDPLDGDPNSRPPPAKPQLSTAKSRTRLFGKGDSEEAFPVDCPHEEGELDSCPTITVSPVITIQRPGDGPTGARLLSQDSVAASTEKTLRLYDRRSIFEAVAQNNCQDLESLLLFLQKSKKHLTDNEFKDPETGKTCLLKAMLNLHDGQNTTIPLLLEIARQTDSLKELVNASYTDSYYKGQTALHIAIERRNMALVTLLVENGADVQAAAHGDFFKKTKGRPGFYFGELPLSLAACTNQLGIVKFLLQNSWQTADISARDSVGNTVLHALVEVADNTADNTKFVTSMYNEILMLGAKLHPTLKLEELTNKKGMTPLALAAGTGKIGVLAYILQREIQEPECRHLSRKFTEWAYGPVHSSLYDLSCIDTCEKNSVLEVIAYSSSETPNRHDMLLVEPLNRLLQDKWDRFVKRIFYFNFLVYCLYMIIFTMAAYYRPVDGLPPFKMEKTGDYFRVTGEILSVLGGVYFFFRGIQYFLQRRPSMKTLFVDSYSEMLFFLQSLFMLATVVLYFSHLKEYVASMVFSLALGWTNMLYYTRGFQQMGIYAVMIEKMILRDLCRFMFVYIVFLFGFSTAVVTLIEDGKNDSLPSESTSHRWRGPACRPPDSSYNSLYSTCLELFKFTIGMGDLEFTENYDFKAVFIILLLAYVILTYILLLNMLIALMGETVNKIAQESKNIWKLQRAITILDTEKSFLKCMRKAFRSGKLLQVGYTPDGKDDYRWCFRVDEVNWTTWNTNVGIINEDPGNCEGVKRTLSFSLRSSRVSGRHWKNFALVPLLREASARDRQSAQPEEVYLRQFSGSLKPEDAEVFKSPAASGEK
A further assay addresses T1, vanilloid receptor (VR1) (Homo sapiens, UniProt Q8NER1).
T1 construct: expressed in transfected cells; host or cells: CHO K1 cells (ECACC), stably transfected
Description: FLIPR Ca2+ influx assay with CHO K1 cells transfected with the human VR1 gene, capsaicin stimulus (Pharmacological method II). The conditions noted are these: capsaicin 100 nM stimulus, Ki from IC50 by Cheng-Prusoff. On the procedure:
In addition, compounds according to the invention of the general formulae I, Ia, Ib, I′, I″, I′″ may be preferred which, in a FLIPR assay with CHO K1 cells which have been transfected with the human gene VR1, in a concentration of less than 2000 nM, preferably of less than 1000 nM, particularly preferably of less then 300 nM, very particularly preferably of less than 100 nM, still more preferably of less than 75 nM, further preferably of less than 50 nM, most preferably of less than 10 nM, bring about 50% displacement of capsaicin which is present in a concentration of 100 nM.
In this FLIPR assay, the influx of Ca^2+ is quantified with the assistance of a Ca^2+-sensitive dye (type Fluo-4, Molecular Probes Europe BV, Leiden, Netherlands) in a Fluorescent Imaging Plate Reader (FLIPR, Molecular Devices, Sunnyvale, USA) as described below.
The agonistic or antagonistic action of the substances to be investigated on the vanilloid receptor (VR1) may also be determined with the following assay. According to this assay, the influx of Ca^2+ through the channel is quantified with the assistance of a Ca^2+-sensitive dye (type Fluo-4, Molecular Probes Europe BV, Leiden, Netherlands) in a Fluorescent Imaging Plate Reader (FLIPR, Molecular Devices, Sunnyvale, USA).
Chinese hamster ovary cells (CHO K1 cells, European Collection of Cell Cultures (ECACC), Great Britain) are stably transfected with the VR1 gene. For functional investigations, these cells are plated out onto poly-D-lysine-coated, black 96-hole plates with a clear base (BD Biosciences, Heidelberg, Germany) at a density of 25,000 cells/hole. The cells are incubated overnight at 37° C. and 5% CO2 in a culture medium (Ham's Nutrient Mixture F12, 10 vol. % FCS (foetal calf serum), 18 μg/mL L-proline). On the following day, the cells are incubated with Fluo-4 (Fluo-4 2 μM, Pluronic F127 0.01 vol. %, Molecular Probes in HBSS (Hank's buffered saline solution), Gibco Invitrogen GmbH, Karlsruhe, Germany) for 30 minutes at 37° C. The plates are then washed 3 times with HBSS buffer and, after a further 15 minutes' incubation at room temperature, used for Ca^2+ measurement in the FLIPR. Ca^2+-dependent fluorescence is here measured before and after the addition of the substances to be investigated (wavelength λex=488 nm, λem=540 nm). Quantification proceeds by measuring the highest fluorescence intensity (FC, fluorescence counts) over time.
The FLIPR protocol consists of 2 additions of substance. The substances to be tested (10 μM) are firstly pipetted onto the cells and Ca^2+ influx is compared with the control (capsaicin 10 μM) (% activation relative to the Ca^2+ signal after addition of 10 μM of capsaicin). After 5 minutes' incubation, 100 nM of capsaicin are added and the influx of Ca^2+ is likewise determined.
The percentage inhibition in comparison with the maximum achievable inhibition with 10 μM capsaicin is calculated.
On the basis of the percentage displacement by different concentrations of the compounds to be tested of the general formula I, IC50 inhibition concentrations which bring about 50% displacement of capsaicin were calculated. Ki values for the test substances were obtained by conversion using the Cheng-Prusoff equation (Cheng, Prusoff; Biochem. Pharmacol. 22, 3099-3108, 1973).

The target in assay [2] is T2, vanilloid receptor 1 (VR1/TRPV1) of the rat species (Rattus norvegicus, UniProt O35433).
T2 construct: The spinal column is removed from decapitated rats; from tissue; host or cells: primary cells from rat dorsal root ganglia (DRG)
T2 sequence (O35433 whole entry): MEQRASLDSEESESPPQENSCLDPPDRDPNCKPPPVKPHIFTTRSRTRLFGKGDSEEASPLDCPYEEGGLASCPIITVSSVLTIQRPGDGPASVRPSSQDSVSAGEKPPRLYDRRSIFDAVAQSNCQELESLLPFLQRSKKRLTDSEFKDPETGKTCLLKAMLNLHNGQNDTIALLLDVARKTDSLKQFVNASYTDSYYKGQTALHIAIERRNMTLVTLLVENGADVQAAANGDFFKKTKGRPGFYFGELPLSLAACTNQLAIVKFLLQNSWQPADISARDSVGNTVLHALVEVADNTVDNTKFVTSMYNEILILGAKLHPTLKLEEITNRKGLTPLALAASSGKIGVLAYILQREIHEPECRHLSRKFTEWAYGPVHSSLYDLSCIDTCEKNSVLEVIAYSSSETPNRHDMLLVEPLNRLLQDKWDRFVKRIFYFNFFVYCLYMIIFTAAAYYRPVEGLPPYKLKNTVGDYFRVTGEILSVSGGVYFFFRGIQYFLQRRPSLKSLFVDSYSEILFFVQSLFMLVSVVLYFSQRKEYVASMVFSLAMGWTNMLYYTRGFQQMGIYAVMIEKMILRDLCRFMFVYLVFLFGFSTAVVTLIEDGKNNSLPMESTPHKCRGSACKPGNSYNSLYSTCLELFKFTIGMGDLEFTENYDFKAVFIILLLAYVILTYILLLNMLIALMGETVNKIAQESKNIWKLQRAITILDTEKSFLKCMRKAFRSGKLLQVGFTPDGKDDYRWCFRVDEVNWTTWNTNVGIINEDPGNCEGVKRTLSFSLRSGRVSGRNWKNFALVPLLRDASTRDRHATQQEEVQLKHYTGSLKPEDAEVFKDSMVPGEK
Description: FLIPR Ca2+ influx assay on rat dorsal root ganglia cells, capsaicin stimulus (Pharmacological method I). The conditions noted are these: capsaicin 100 nM stimulus, Ki from IC50 by Cheng-Prusoff. The method, then:
The agonistic or antagonistic action of the substances to be investigated on the vanilloid receptor 1 (VR1/TRPV1) of the rat species may be determined with the following assay. According to this assay, the influx of Ca^2+ through the receptor channel is quantified with the assistance of a Ca^2+-sensitive dye (type Fluo-4, Molecular Probes Europe BV, Leiden, Netherlands) in a Fluorescent Imaging Plate Reader (FLIPR, Molecular Devices, Sunnyvale, USA).
Complete medium: 50 mL HAMS F12 Nutrient Mixture (Gibco Invitrogen GmbH, Karlsruhe, Germany) with 10 vol. % FCS (foetal calf serum, Gibco Invitrogen GmbH, Karlsruhe, Germany, heat-inactivated);
Cell culture plate: poly-D-lysine-coated, black 96-hole plates with clear base (96 well black/clear plate, BD Biosciences, Heidelberg, Germany) are additionally coated with laminin (Gibco Invitrogen GmbH, Karlsruhe, Germany), by diluting laminin to a concentration of 100 μg/mL with PBS (Ca—Mg-free PBS, Gibco Invitrogen GmbH, Karlsruhe, Germany). Aliquots with a concentration of 100 μg/mL of laminin are taken and stored at −20° C. The aliquots are diluted with PBS in the ratio of 1:10 to 10 μg/mL of laminin and 50 μL of the solution is pipetted into each well of the cell culture plate. The cell culture plates are incubated for at least two hours at 37° C., the supernatant solution is aspirated and the wells are each washed twice with PBS. The coated cell culture plates are stored with supernatant PBS and this is only removed directly prior to introduction of the cells.
The spinal column is removed from decapitated rats and this is placed directly in cold HBSS buffer (Hank's buffered saline solution, Gibco Invitrogen GmbH, Karlsruhe, Germany), i.e. located in an ice bath, combined with 1 vol. % (percent by volume) of an AA solution (antibiotic/antimycotic solution, PAA, Pasching, Austria). The spinal column is severed lengthwise and removed from the spinal canal together with fasciae. The dorsal root ganglia (DRGs) are then removed and in turn stored in cold HBSS buffer combined with 1 vol. % of an AA solution. The DRGs, from which blood residues and spinal nerves have been completely removed, are in each case transferred into 500 μL cold collagenase type 2 (PAA, Pasching, Austria) and incubated for 35 minutes at 37° C. After the addition of 2.5 vol. % trypsin (PAA, Pasching, Austria) incubation at 37° C. is continued for a further 10 minutes. After complete incubation, the enzyme solution is carefully pipetted off and the remaining DRGs are combined in each case with 500 μL of complete medium.
The DRGs are in each case repeatedly suspended, drawn through cannulas no. 1, no. 12 and no. 16 by means of a syringe and transferred into 50 mL Falcon microtubes, these being filled to 15 mL with complete medium. The content of each Falcon microtube is in each case filtered through a 70 μm Falcon filter insert and centrifuged for 10 minutes at 1200 revolutions and room temperature. The resultant pellet is in each case redissolved in 250 μL of complete medium and the cell count is determined.
The number of cells in the suspension is adjusted to 3×10^5 per mL and a 150 μL portion of this suspension is in each case placed in a well of the cell culture plates which have been coated as described above. The plates are left to stand in the incubator for two to three days at 37° C., 5 vol. % CO2 and 95% relative atmospheric humidity.
The cells are then loaded with 2 μM Fluo-4 and 0.01 vol. % Pluronic F127 (Molecular Probes Europe BV, Leiden, Netherlands) in HBSS buffer (Hank's buffered saline solution, Gibco Invitrogen GmbH, Karlsruhe, Germany) for 30 min at 37° C., washed 3×with HBSS buffer and, after a further 15 minutes' incubation at room temperature, used for Ca^2+ measurement in the FLIPR assay. Ca^2+-dependent fluorescence is here measured before and after the addition of substances (λex=488 nm, λem=540 nm). […]

SMILES strings stand for the structures.

Broadly, the Ki is a dissociation constant, usually derived from enzyme kinetics or from competition with a known ligand. Read a low Ki as a stronger hold on the target. One may read the inhibition as how much of the control response was suppressed. The low end stands for a response near the control, the high end for a response far below the control.

T1 sequence (Q8NER1 whole entry): as the sequence (Q8NER1 whole entry) above

Regarding `CC(C(=O)NCc1ccc(C(F)(F)F)cc1SC1CCCCC1)c1ccc(N(C)S(C)(=O)=O)c(F)c1` (stereo not drawn) [Example 13, N-(2-(cyclohexylthio)-4-(trifluoromethyl)benzyl)-2-(3-fluoro-4-(N-methylmethylsulfonamido)phenyl)propanamide], the “IC50 (human) after pH stimulus” value in assay [1] is on record as “ne”. For the same compound, the inhibition constant Ki on vanilloid receptor (VR1) turned out to be 0.0331 µM; in assay [2], 0.0052 µM.

In assay [1], `CC1CCN(c2cc(C(C)(C)C)ccc2CNC(=O)C(C)c2ccc(N(C)S(C)(=O)=O)c(F)c2)CC1` (stereo not drawn) [Example 14, N-(4-tert.-butyl-2-(4-methylpiperidin-1-yl)benzyl)-2-(3-fluoro-4-(N-methylmethylsulfonamido)phenyl)propanamide] gave an inhibition at 5 µM of 9% and an inhibition at 10 µM of 43%. The Ki at vanilloid receptor (VR1) amounted to 0.0131 µM. Also, the affinity in assay [2] corresponds to a Ki of 0.003 µM.

As to `CC(C(=O)NCc1ccc(C(C)(C)C)cc1SC1CCCCC1)c1ccc(N(C)S(C)(=O)=O)c(F)c1` (stereo not drawn) [Example 15, N-(4-tert.-butyl-2-(cyclohexylthio)benzyl)-2-(3-fluoro-4-(N-methylmethylsulfonamido)phenyl)propanamide], the inhibition at 1 µM in assay [1] (compound 1 μM) is 0%. In assay [1], this compound had an inhibition at 5 µM of 6% and an inhibition at 10 µM of 30%. Also, the affinity at vanilloid receptor (VR1) corresponds to a Ki of 0.0183 µM. The same compound gave a Ki in assay [2] of 0.0076 µM.
